Data: patent publication US9932637B2, “Genetic polymorphisms associated with cardiovascular disorders and drug response, methods of detection and uses thereof” (CELERA CORPORATION, priority 2003, dated 2018)

Tested on: patients with prior myocardial infarction (CARE study)
Test: CARE: association of SNPs with pravastatin treatment in cardiovascular events prevention (logistic regression, odds ratio pravastatin vs placebo by genotype; Table 8)
Assay type: in vivo, human
Conditions: for Fatal CHD/Definite Nonfatal MI, n/total (%) / Fatal/Nonfatal MI (def & prob), n/total (%) / MI (Fatal/Nonfatal), n/total (%) / Nonfatal MI (Probable/Definite), n/total (%) / Nonfatal MI (def & prob), n/total (%): GAPD hCV8921288, All Patients
Description: In order to identify genetic markers associated with acute coronary events (e.g. MI, stroke, unstable angina, congestive heart failure, etc.) or response to statin treatment for the prevention of coronary events, samples from the Cholesterol and Recurrent Events (CARE) study (a randomized multicentral double-blinded trial on secondary prevention of acute coronary events with pravastatin) (Sacks et al., 1991, Am. J. Cardiol. 68: 1436-1446) were genotyped. A well-documented myocardial infarction (MI) was one of the enrollment criteria for entry into the CARE study. Patients were enrolled in the CARE trial from 80 participating study centers. […] Patients were randomized to receive either 40 mg of pravastatin once daily or a matching placebo. The primary endpoint of the trial was death from coronary heart disease and the median duration of follow-up was 5.0 years (range, 4.0 to 6.2 years). […] Secondary endpoints of other related cardiovascular or metabolic disease events, and changes in clinical variables were also recorded in pravastatin-treated and placebo groups. All individuals included in the study had signed a written informed consent form and the study protocol was approved by the respective Institutional Review Boards (IRBs).
For genotyping SNPs in CARE patient samples, DNA was extracted from blood samples using conventional DNA extraction methods such as the QIA-amp kit from Qiagen. Genotypes were obtained on an ABI PRISM® 7900HT Sequence Detection PCR system (Applied Biosystems, Foster City, Calif.) by kinetic allele-specific PCR, similar to the method described by Germer et al. (Germer S., Holland M. J., Higuchi R. 2000, Genome Res. 10: 258-266).
Statistical analysis for association of SNPs with pravastatin treatment in cardiovascular events prevention (Table 8) was carried out using an overall logistic regression model that included an intercept, a parameter for the effect of a genotype containing two rare alleles versus a genotype containing no rare alleles, a parameter for the effect of a genotype containing one rare allele versus a genotype containing no rare alleles, a parameter for the effect of use of pravastatin versus the use of placebo, and parameters for the interaction effects between SNP genotypes and pravastatin use. The test of the overall model is a chi-square test with two degrees of freedom for analyses containing all three genotypes, and one degree of freedom for analyses containing two genotypes.
Effect sizes were estimated through odds ratios (pravastatin group versus placebo) for carriers of each genotype (groups of 0, 1, and 2 minor allele carriers). The effect was considered to be significant if p-value for testing whether any of the interactions between SNP genotypes and pravastatin use were <0.05. […] Odds ratios less than one indicate that the specific SNP allele has a protective effect and odds ratios greater than one indicate that the specific SNP allele has an adverse effect.

[1] = ELN hCV1253630, All Patients, Fatal CHD/Definite Non-fatal MI
[2] = ELN hCV1253630, All Patients, Fatal/Non-fatal MI (def & prob)
[3] = ELN hCV1253630, All Patients, Hosp. for Cardiovascular Disease
[4] = ELN hCV1253630, All Patients, Non-fatal MI (def & prob)
[5] = ELN hCV1253630, All Patients, Total Cardiovascular Disease Events
[6] = ELN hCV1253630, All Patients, Total Coronary Heart Disease Events
[7] = FCGR2A hCV9077561, All Patients, 0 Rare Alleles, Prava arm
[8] = FCGR2A hCV9077561, All Patients, 1 Rare Allele, Prava arm
[9] = FCGR2A hCV9077561, All Patients, 2 Rare Alleles, Prava arm
[10] = HLA-DPA1 hCV15760070, All Patients, Coronary Artery Bypass or Revascularization
[11] = HLA-DPA1 hCV15760070, All Patients, Total Coronary Heart Disease Events

CC[C@H](C)C(=O)O[C@H]1C[C@H](O)C=C2C=C[C@H](C)[C@H](CC[C@@H](O)C[C@@H](O)CC(=O)O)[C@H]21 [pravastatin]
Fatal CHD/Definite Non-fatal MI, n/total (%) (ELN hCV1253630, All Patients, 2 Rare Alleles, Prava, n/total 29/245): (11.8%) | Non-fatal MI (def & prob), n/total (%) (ELN hCV1253630, All Patients, 2 Rare Alleles, Prava, n/total 30/245): (12.2%) | Fatal/Non-fatal MI (def & prob), n/total (%) (ELN hCV1253630, All Patients, 2 Rare Alleles, Prava, n/total 33/245): (13.5%) | Total Coronary Heart Disease Events, n/total (%) (ELN hCV1253630, All Patients, 2 Rare Alleles, Prava, n/total 88/245): (35.9%) | Hosp. for Cardiovascular Disease, n/total (%) (ELN hCV1253630, All Patients, 2 Rare Alleles, Prava, n/total 113/245): (46.1%) | Total Cardiovascular Disease Events, n/total (%) (ELN hCV1253630, All Patients, 2 Rare Alleles, Prava, n/total 115/245): (46.9%) | Prava vs. Placebo Odds Ratio, 0 Rare Alleles [1]: 0.50 | Prava vs. Placebo Odds Ratio, 1 Rare Alleles [1]: 0.75 | Prava vs. Placebo Odds Ratio, 2 Rare Alleles [1]: 1.41 | Prava vs. Placebo Odds Ratio, 0 Rare Alleles [2]: 0.44 | Prava vs. Placebo Odds Ratio, 1 Rare Alleles [2]: 0.68 | Prava vs. Placebo Odds Ratio, 2 Rare Alleles [2]: 1.63 | Prava vs. Placebo Odds Ratio, 0 Rare Alleles [3]: 0.63 | Prava vs. Placebo Odds Ratio, 1 Rare Alleles [3]: 0.76 | Prava vs. Placebo Odds Ratio, 2 Rare Alleles [3]: 1.15 | Prava vs. Placebo Odds Ratio, 0 Rare Alleles [4]: 0.50 | Prava vs. Placebo Odds Ratio, 1 Rare Alleles [4]: 0.67 | Prava vs. Placebo Odds Ratio, 2 Rare Alleles [4]: 1.63 | Prava vs. Placebo Odds Ratio, 0 Rare Alleles [5]: 0.63 | Prava vs. Placebo Odds Ratio, 1 Rare Alleles [5]: 0.75 | Prava vs. Placebo Odds Ratio, 2 Rare Alleles [5]: 1.11 | Prava vs. Placebo Odds Ratio, 0 Rare Alleles [6]: 0.66 | Prava vs. Placebo Odds Ratio, 1 Rare Alleles [6]: 0.73 | Prava vs. Placebo Odds Ratio, 2 Rare Alleles [6]: 1.26 | Catheterization, n/total (%) [7]: (11.6%) | Coronary Artery Bypass or Revascularization, n/total (%) [7]: (16.1%) | Catheterization, n/total (%) [8]: (11.2%) | Coronary Artery Bypass or Revascularization, n/total (%) [8]: (14.8%) | Catheterization, n/total (%) [9]: (6.8%) | Coronary Artery Bypass or Revascularization, n/total (%) [9]: (11.8%) | Fatal CHD/Definite Nonfatal MI, n/total (%) (0 Rare Alleles, Prava arm): (10.5%) | Fatal/Nonfatal MI (def & prob), n/total (%) (0 Rare Alleles, Prava arm): (10.6%) | MI (Fatal/Nonfatal), n/total (%) (0 Rare Alleles, Prava arm): (10.9%) | Nonfatal MI (Probable/Definite), n/total (%) (0 Rare Alleles, Prava arm): (10.3%) | Nonfatal MI (def & prob), n/total (%) (0 Rare Alleles, Prava arm): (9.9%) | Fatal CHD/Definite Nonfatal MI, n/total (%) (1 Rare Allele, Prava arm): (7.4%) | Fatal/Nonfatal MI (def & prob), n/total (%) (1 Rare Allele, Prava arm): (8.7%) | MI (Fatal/Nonfatal), n/total (%) (1 Rare Allele, Prava arm): (8.7%) | Nonfatal MI (Probable/Definite), n/total (%) (1 Rare Allele, Prava arm): (8.1%) | Nonfatal MI (def & prob), n/total (%) (1 Rare Allele, Prava arm): (7.6%) | Fatal CHD/Definite Nonfatal MI, n/total (%) (2 Rare Alleles, Prava arm): (8.1%) | Fatal/Nonfatal MI (def & prob), n/total (%) (2 Rare Alleles, Prava arm): (6.5%) | MI (Fatal/Nonfatal), n/total (%) (2 Rare Alleles, Prava arm): (6.5%) | Nonfatal MI (Probable/Definite), n/total (%) (2 Rare Alleles, Prava arm): (6.5%) | Nonfatal MI (def & prob), n/total (%) (2 Rare Alleles, Prava arm): (4.8%) | Coronary Artery Bypass or Revascularization, n/total (%) (HLA-DPA1 hCV15760070, All Patients, 0 Rare Alleles, Prava, n/total 143/1019): (14.0%) | Total Coronary Heart Disease Events, n/total (%) (HLA-DPA1 hCV15760070, All Patients, 0 Rare Alleles, Prava, n/total 285/1019): (28.0%) | Coronary Artery Bypass or Revascularization, n/total (%) (HLA-DPA1 hCV15760070, All Patients, 1 Rare Allele, Prava, n/total 67/443): (15.1%) | Total Coronary Heart Disease Events, n/total (%) (HLA-DPA1 hCV15760070, All Patients, 1 Rare Allele, Prava, n/total 136/443): (30.7%) | Coronary Artery Bypass or Revascularization, n/total (%) (HLA-DPA1 hCV15760070, All Patients, 2 Rare Alleles, Prava, n/total 9/52): (17.3%) | Total Coronary Heart Disease Events, n/total (%) (HLA-DPA1 hCV15760070, All Patients, 2 Rare Alleles, Prava, n/total 21/52): (40.4%) | Prava vs. Placebo Odds Ratio, 0 Rare Alleles [10]: 0.65 | Prava vs. Placebo Odds Ratio, 1 Rare Alleles [10]: 0.71 | Prava vs. Placebo Odds Ratio, 2 Rare Alleles [10]: 5.65 | Prava vs. Placebo Odds Ratio, 0 Rare Alleles [11]: 0.69 | Prava vs. Placebo Odds Ratio, 1 Rare Alleles [11]: 0.86 | Prava vs. Placebo Odds Ratio, 2 Rare Alleles [11]: 2.48 | Fatal/Non-fatal MI (def & prob), n/total (%) (HLA-DPB1 hCV8851085, All Patients, 0 Rare Alleles, Prava, n/total 82/919): (8.9%)
